Results published in ChEMBL document CHEMBL3352452, “Phosphoinositide-3-kinase inhibitors: evaluation of substituted alcohols as replacements for the piperazine sulfonamide portion of AMG 511” (Bioorg Med Chem Lett, 2014).
Active and inactive are the calls of the source. The calls are words filed in the database; no cut-off is given here.

tested on: not listed separately; test: Terminal half life in Sprague-Dawley rat at 1 mg/kg, iv and 2 mg/kg, po; assay type: ADME, organism-based; details: in vivo, read-out: beta t1/2 (converted)

Row | Compound | half-life
1 | COc1cc(Nc2ncc(C(C)(C)O)cc2-c2nc(C)nc(N)n2)cnc1OC | 4.8 h
2 | COc1ncc(Nc2ncc(C(C)(C)O)cc2-c2nc(C)nc(N)n2)cc1F | 3.1 h
3 | COc1ncc(Nc2ncc([C@@H](C)N3CCN(S(C)(=O)=O)CC3)cc2-c2nc(C)nc(N)n2)cc1F | 3.3 h

tested on: not listed separately; test: Inhibition of PI3K-mediated Akt S473 phosphorylation in human U87MG cells after 2 hrs by cell-based assay; design: species or system U-87MG ATCC; details: U-87 MG

Row | Compound | IC50
4 | COc1ccc(Nc2ncc(C(C)(C)O)cc2-c2nc(C)nc(N)n2)cn1 | 48 nM
5 | COc1cc(Nc2ncc(C(C)(C)O)cc2-c2nc(C)nc(N)n2)cnc1OC | 10 nM
6 | COc1ncc(Nc2ncc([C@@H](C)O)cc2-c2nc(C)nc(N)n2)cc1F | 20 nM
7 | COc1ncc(Nc2ncc([C@H](C)O)cc2-c2nc(C)nc(N)n2)cc1F | 26 nM
8 | CCc1cc(Nc2ncc(C(C)(C)O)cc2-c2nc(C)nc(N)n2)cnc1OC | 470 nM
9 | COc1ncc(Nc2ncc(C(C)(C)O)cc2-c2nc(C)nc(N)n2)cc1C(C)C | 414 nM
10 | Cc1nc(N)nc(-c2cc(C(C)(C)O)cnc2Nc2cncc(S(C)(=O)=O)c2)n1 | 1160 nM
11 | COc1ncc(Nc2ncc(C(C)(C)O)cc2-c2nc(C)nc(N)n2)cc1C | 49 nM
12 | COc1ncc(Nc2ncc(C3(O)CC3)cc2-c2nc(C)nc(N)n2)cc1F | 18 nM
13 | COc1ncc(Nc2ncc(CO)cc2-c2nc(C)nc(N)n2)cc1F | 44 nM

tested on: not listed separately; test: Intrinsic clearance in rat liver microsomes at 1 uM after 30 mins; assay type: ADME; details: read-out: CLH

Row | Compound | microsomal CLint at 1 µM
14 | COc1ccc(Nc2ncc(C(C)(C)O)cc2-c2nc(C)nc(N)n2)cn1 | 19 µL/min/mg
15 | COc1ncc(Nc2ncc([C@@H](C)CO)cc2-c2nc(C)nc(N)n2)cc1F | 37 µL/min/mg
16 | COc1cc(Nc2ncc(C(C)(C)O)cc2-c2nc(C)nc(N)n2)cnc1OC | < 14 µL/min/mg
17 | Cc1nc(N)nc(-c2cc(C(C)(C)O)cnc2Nc2cncc(F)c2)n1 | 15 µL/min/mg
18 | COc1ncc(Nc2ncc([C@@H](C)O)cc2-c2nc(C)nc(N)n2)cc1F | 45 µL/min/mg
19 | COc1ncc(Nc2ncccc2-c2nc(C)nc(N)n2)cc1F | 36 µL/min/mg
20 | COc1ncc(Nc2ncc([C@H](C)O)cc2-c2nc(C)nc(N)n2)cc1F | < 14 µL/min/mg
21 | COc1cncc(Nc2ncc(C(C)(C)O)cc2-c2nc(C)nc(N)n2)c1 | 19 µL/min/mg
22 | COc1ncc(Nc2ncc(C(C)(C)O)cc2-c2nc(C)nc(N)n2)cc1F | 23 µL/min/mg
23 | COc1ncc(Nc2ncc([C@H](C)CO)cc2-c2nc(C)nc(N)n2)cc1F | 36 µL/min/mg
24 | COc1ncc(Nc2ncc([C@@H](C)N3CCN(S(C)(=O)=O)CC3)cc2-c2nc(C)nc(N)n2)cc1F | 20 µL/min/mg
25 | Cc1nc(N)nc(-c2cc(C(C)(C)O)cnc2Nc2cncc(S(C)(=O)=O)c2)n1 | < 14 µL/min/mg
26 | COc1ncc(Nc2ncc(C(C)(C)O)cc2-c2nc(C)nc(N)n2)cc1C | 22 µL/min/mg
27 | COc1ncc(Nc2ncc(C(C)(C)CO)cc2-c2nc(C)nc(N)n2)cc1F | 34 µL/min/mg
28 | COc1ncc(Nc2ncc(C(O)C(F)(F)F)cc2-c2nc(C)nc(N)n2)cc1F (racemic) | 34 µL/min/mg
29 | COc1ncc(Nc2ncc(C3(O)CC3)cc2-c2nc(C)nc(N)n2)cc1F | 79 µL/min/mg
30 | COc1ncc(Nc2ncc(CO)cc2-c2nc(C)nc(N)n2)cc1F | 51 µL/min/mg

tested on: P-gp; test: Efflux ratio of permeability across pig LLC-PK1 cells stably over-expressing rat P-gp at 5 uM; assay type: ADME, cell-based, Sus scrofa; details: not given

Row | Compound | efflux ratio at 5 µM
31 | COc1cc(Nc2ncc(C(C)(C)O)cc2-c2nc(C)nc(N)n2)cnc1OC | 25

tested on: not listed separately; test: Oral bioavailability in Sprague-Dawley rat at 2 mg/kg; assay type: ADME, organism-based; details: in vivo

Row | Compound | bioavailability
32 | COc1ncc(Nc2ncc(C(C)(C)O)cc2-c2nc(C)nc(N)n2)cc1F | 37%

tested on: not listed separately; test: Fraction unbound in Sprague-Dawley rat plasma at 1 mg/kg, iv and 2 mg/kg, po; assay type: ADME, organism-based; details: not given

Row | Compound | fraction unbound
33 | COc1ncc(Nc2ncc(C(C)(C)O)cc2-c2nc(C)nc(N)n2)cc1F | 0.06
34 | COc1ncc(Nc2ncc([C@@H](C)N3CCN(S(C)(=O)=O)CC3)cc2-c2nc(C)nc(N)n2)cc1F | 0.08

tested on: Mus musculus; test: Inhibition of HGF-induced PI3K-mediated Akt phosphorylation at Ser473 in female CD1 nude mouse liver at 10 to 30 mg/kg, po administered 6 hrs prior HGF treatment measured after 5 mins by electrochemical luminescence immunoassay; assay type: functional, organism-based; details: not given

Row | Compound | inhibition
35 | COc1ncc(Nc2ncc(C(C)(C)O)cc2-c2nc(C)nc(N)n2)cc1F | Active

tested on: not listed separately; test: Volume of distribution at steady state in Sprague-Dawley rat at 1 mg/kg, iv and 2 mg/kg, po; assay type: ADME, organism-based; details: in vivo, read-out: Vdss

Row | Compound | Vd
36 | COc1cc(Nc2ncc(C(C)(C)O)cc2-c2nc(C)nc(N)n2)cnc1OC | 4.2 L/kg
37 | COc1ncc(Nc2ncc(C(C)(C)O)cc2-c2nc(C)nc(N)n2)cc1F | 1.7 L/kg

target: PI3-kinase p110-alpha/p85-alpha (Homo sapiens, UniProt P42336); test: Inhibition of human N-terminal poly-His tagged p110 alpha/ p85alpha expressed in Sf9 Baculovirus system after 20 mins by AlphaScreen assay; details: not given
Sequence (P27986 whole entry): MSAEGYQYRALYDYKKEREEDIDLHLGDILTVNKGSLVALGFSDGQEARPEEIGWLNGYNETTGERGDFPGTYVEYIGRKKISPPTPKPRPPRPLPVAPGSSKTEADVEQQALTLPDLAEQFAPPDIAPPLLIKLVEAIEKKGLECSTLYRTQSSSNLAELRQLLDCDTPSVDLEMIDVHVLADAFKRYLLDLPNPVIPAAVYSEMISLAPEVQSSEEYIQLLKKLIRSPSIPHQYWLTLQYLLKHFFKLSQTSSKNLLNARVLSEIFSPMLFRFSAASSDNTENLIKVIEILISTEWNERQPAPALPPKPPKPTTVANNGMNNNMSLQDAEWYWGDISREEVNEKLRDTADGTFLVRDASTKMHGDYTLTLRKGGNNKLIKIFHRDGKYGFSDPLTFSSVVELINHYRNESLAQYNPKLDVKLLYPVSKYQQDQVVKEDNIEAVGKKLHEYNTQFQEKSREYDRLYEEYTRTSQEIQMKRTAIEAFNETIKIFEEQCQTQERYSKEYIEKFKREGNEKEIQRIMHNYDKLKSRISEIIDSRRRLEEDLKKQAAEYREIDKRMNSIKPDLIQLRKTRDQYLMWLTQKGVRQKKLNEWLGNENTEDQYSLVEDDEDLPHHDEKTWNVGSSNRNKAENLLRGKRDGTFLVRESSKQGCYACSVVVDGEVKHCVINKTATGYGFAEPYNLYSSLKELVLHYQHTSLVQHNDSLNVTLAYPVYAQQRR
Sequence (P42336 whole entry): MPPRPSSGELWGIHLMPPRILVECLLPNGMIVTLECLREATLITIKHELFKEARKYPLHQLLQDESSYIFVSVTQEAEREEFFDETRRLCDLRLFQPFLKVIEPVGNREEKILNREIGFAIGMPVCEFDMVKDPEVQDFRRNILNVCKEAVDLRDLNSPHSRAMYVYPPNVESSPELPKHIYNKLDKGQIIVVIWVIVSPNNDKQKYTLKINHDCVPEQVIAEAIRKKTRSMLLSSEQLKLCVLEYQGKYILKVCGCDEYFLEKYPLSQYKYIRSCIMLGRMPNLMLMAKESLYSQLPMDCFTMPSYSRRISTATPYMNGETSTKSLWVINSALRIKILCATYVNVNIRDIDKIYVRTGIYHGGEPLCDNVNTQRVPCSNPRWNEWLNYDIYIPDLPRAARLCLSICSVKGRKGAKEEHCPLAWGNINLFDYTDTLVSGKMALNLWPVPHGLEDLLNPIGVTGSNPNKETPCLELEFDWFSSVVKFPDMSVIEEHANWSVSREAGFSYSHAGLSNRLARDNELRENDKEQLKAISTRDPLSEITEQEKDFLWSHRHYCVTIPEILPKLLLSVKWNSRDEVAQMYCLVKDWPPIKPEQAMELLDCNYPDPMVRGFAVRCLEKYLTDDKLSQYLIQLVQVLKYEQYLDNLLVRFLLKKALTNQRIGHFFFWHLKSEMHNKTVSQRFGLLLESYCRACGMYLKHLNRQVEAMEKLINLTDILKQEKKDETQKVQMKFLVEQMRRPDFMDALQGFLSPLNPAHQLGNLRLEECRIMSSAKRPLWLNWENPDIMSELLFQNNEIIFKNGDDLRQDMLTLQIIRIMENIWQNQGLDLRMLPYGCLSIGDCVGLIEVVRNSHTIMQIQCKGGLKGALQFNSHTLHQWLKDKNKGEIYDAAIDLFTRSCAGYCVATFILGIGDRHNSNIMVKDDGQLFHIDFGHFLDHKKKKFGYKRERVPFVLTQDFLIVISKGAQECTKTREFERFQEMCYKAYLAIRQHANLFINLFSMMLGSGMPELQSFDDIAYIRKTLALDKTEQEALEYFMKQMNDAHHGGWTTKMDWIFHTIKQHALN

Row | Compound | Ki
38 | COc1ccc(Nc2ncc(C(C)(C)O)cc2-c2nc(C)nc(N)n2)cn1 | 89 nM
39 | COc1ncc(Nc2ncc([C@@H](C)CO)cc2-c2nc(C)nc(N)n2)cc1F | 40 nM
40 | COc1cc(Nc2ncc(C(C)(C)O)cc2-c2nc(C)nc(N)n2)cnc1OC | 30 nM
41 | Cc1nc(N)nc(-c2cc(C(C)(C)O)cnc2Nc2cncc(F)c2)n1 | 87 nM
42 | COc1ncc(Nc2ncc([C@@H](C)O)cc2-c2nc(C)nc(N)n2)cc1F | 40 nM
43 | COc1ncc(Nc2ncccc2-c2nc(C)nc(N)n2)cc1F | 48 nM
44 | COc1ncc(Nc2ncc([C@H](C)O)cc2-c2nc(C)nc(N)n2)cc1F | 48 nM
45 | COc1cncc(Nc2ncc(C(C)(C)O)cc2-c2nc(C)nc(N)n2)c1 | 89 nM
46 | COc1ncc(Nc2ncc(C(C)(C)O)cc2-c2nc(C)nc(N)n2)cc1F | 23 nM
47 | CCc1cc(Nc2ncc(C(C)(C)O)cc2-c2nc(C)nc(N)n2)cnc1OC | 469 nM
48 | COc1ncc(Nc2ncc([C@H](C)CO)cc2-c2nc(C)nc(N)n2)cc1F | 26 nM
49 | COc1ncc(Nc2ncc(C(C)(C)O)cc2-c2nc(C)nc(N)n2)cc1C(C)C | 153 nM
50 | Cc1nc(N)nc(-c2cc(C(C)(C)O)cnc2Nc2cncc(S(=O)(=O)c3ccccc3)c2)n1 | 224 nM
51 | COc1ncc(Nc2ncc(C(C)(C)O)cc2-c2nc(C)nc(N)n2)cc1C | 118 nM
52 | COc1ncc(Nc2ncc(C(C)(C)CO)cc2-c2nc(C)nc(N)n2)cc1F | 40 nM
53 | COc1ncc(Nc2ncc(C(O)C(F)(F)F)cc2-c2nc(C)nc(N)n2)cc1F (racemic) | 30 nM
54 | COc1ncc(Nc2ncc(C3(O)CC3)cc2-c2nc(C)nc(N)n2)cc1F | 16 nM
55 | COc1ncc(Nc2ncc(CO)cc2-c2nc(C)nc(N)n2)cc1F | 56 nM

target: Serine/threonine-protein kinase mTOR (Homo sapiens, UniProt P42345); test: Inhibition of recombinant N-terminally GST-tagged mTOR (1360 to 2549 aa) (unknown origin) assessed as inhibition of 27BP1 phosphorylation after 90 mins by TR-FRET assay; details: not given

Row | Compound | IC50
56 | COc1ccc(Nc2ncc(C(C)(C)O)cc2-c2nc(C)nc(N)n2)cn1 | 790 nM
57 | COc1ncc(Nc2ncc([C@@H](C)CO)cc2-c2nc(C)nc(N)n2)cc1F | > 15000 nM
58 | COc1cc(Nc2ncc(C(C)(C)O)cc2-c2nc(C)nc(N)n2)cnc1OC | 10600 nM
59 | Cc1nc(N)nc(-c2cc(C(C)(C)O)cnc2Nc2cncc(F)c2)n1 | 2500 nM
60 | COc1ncc(Nc2ncc([C@@H](C)O)cc2-c2nc(C)nc(N)n2)cc1F | > 25000 nM
61 | COc1ncc(Nc2ncccc2-c2nc(C)nc(N)n2)cc1F | > 22000 nM
62 | COc1ncc(Nc2ncc([C@H](C)O)cc2-c2nc(C)nc(N)n2)cc1F | > 25000 nM
63 | COc1cncc(Nc2ncc(C(C)(C)O)cc2-c2nc(C)nc(N)n2)c1 | 2100 nM
64 | COc1ncc(Nc2ncc(C(C)(C)O)cc2-c2nc(C)nc(N)n2)cc1F | 7800 nM
65 | CCc1cc(Nc2ncc(C(C)(C)O)cc2-c2nc(C)nc(N)n2)cnc1OC | 15800 nM
66 | COc1ncc(Nc2ncc([C@H](C)CO)cc2-c2nc(C)nc(N)n2)cc1F | 11100 nM
67 | COc1ncc(Nc2ncc(C(C)(C)O)cc2-c2nc(C)nc(N)n2)cc1C(C)C | > 25000 nM
68 | Cc1nc(N)nc(-c2cc(C(C)(C)O)cnc2Nc2cncc(S(C)(=O)=O)c2)n1 | > 16000 nM
69 | Cc1nc(N)nc(-c2cc(C(C)(C)O)cnc2Nc2cncc(S(=O)(=O)c3ccccc3)c2)n1 | 6700 nM
70 | COc1ncc(Nc2ncc(C(C)(C)O)cc2-c2nc(C)nc(N)n2)cc1C | 7800 nM
71 | COc1ncc(Nc2ncc(C(C)(C)CO)cc2-c2nc(C)nc(N)n2)cc1F | > 17000 nM
72 | COc1ncc(Nc2ncc(C(C)(C)O)cc2-c2nc(C)nc(N)n2)cc1C(F)(F)F | > 25000 nM
73 | COc1ncc(Nc2ncc(C(O)C(F)(F)F)cc2-c2nc(C)nc(N)n2)cc1F (racemic) | 2200 nM
74 | COc1ncc(Nc2ncc(C3(O)CC3)cc2-c2nc(C)nc(N)n2)cc1F | 3700 nM
75 | COc1ncc(Nc2ncc(CO)cc2-c2nc(C)nc(N)n2)cc1F | > 15000 nM

tested on: not listed separately; test: Intrinsic clearance in human liver microsomes at 1 uM after 30 mins; assay type: ADME; details: read-out: CLH

Row | Compound | microsomal CLint at 1 µM
76 | COc1ccc(Nc2ncc(C(C)(C)O)cc2-c2nc(C)nc(N)n2)cn1 | < 14 µL/min/mg
77 | COc1ncc(Nc2ncc([C@@H](C)CO)cc2-c2nc(C)nc(N)n2)cc1F | < 14 µL/min/mg
78 | COc1cc(Nc2ncc(C(C)(C)O)cc2-c2nc(C)nc(N)n2)cnc1OC | < 14 µL/min/mg
79 | Cc1nc(N)nc(-c2cc(C(C)(C)O)cnc2Nc2cncc(F)c2)n1 | < 14 µL/min/mg
80 | COc1ncc(Nc2ncc([C@@H](C)O)cc2-c2nc(C)nc(N)n2)cc1F | 22 µL/min/mg
81 | COc1ncc(Nc2ncccc2-c2nc(C)nc(N)n2)cc1F | 99 µL/min/mg
82 | COc1ncc(Nc2ncc([C@H](C)O)cc2-c2nc(C)nc(N)n2)cc1F | < 14 µL/min/mg
83 | COc1cncc(Nc2ncc(C(C)(C)O)cc2-c2nc(C)nc(N)n2)c1 | 17 µL/min/mg
84 | COc1ncc(Nc2ncc(C(C)(C)O)cc2-c2nc(C)nc(N)n2)cc1F | < 14 µL/min/mg
85 | COc1ncc(Nc2ncc([C@H](C)CO)cc2-c2nc(C)nc(N)n2)cc1F | 14 µL/min/mg
86 | Cc1nc(N)nc(-c2cc(C(C)(C)O)cnc2Nc2cncc(S(C)(=O)=O)c2)n1 | < 14 µL/min/mg
87 | COc1ncc(Nc2ncc(C(C)(C)O)cc2-c2nc(C)nc(N)n2)cc1C | < 14 µL/min/mg
88 | COc1ncc(Nc2ncc(C(C)(C)CO)cc2-c2nc(C)nc(N)n2)cc1F | 34 µL/min/mg
89 | COc1ncc(Nc2ncc(C(O)C(F)(F)F)cc2-c2nc(C)nc(N)n2)cc1F (racemic) | 18 µL/min/mg
90 | COc1ncc(Nc2ncc(C3(O)CC3)cc2-c2nc(C)nc(N)n2)cc1F | 39 µL/min/mg

tested on: Mus musculus; test: Inhibition of HGF-induced PI3K-mediated Akt phosphorylation at Ser473 in female CD1 nude mouse liver compound administered orally 6 hrs prior HGF treatment measured after 5 mins by electrochemical luminescence immunoassay; assay type: functional, organism-based; details: not given

Row | Compound | inhibition
91 | COc1ncc(Nc2ncc(C(C)(C)O)cc2-c2nc(C)nc(N)n2)cc1F | Dose-dependent effect

tested on: not listed separately; test: Clearance in Sprague-Dawley rat at 1 mg/kg, iv and 2 mg/kg, po; assay type: ADME, organism-based; details: in vivo

Row | Compound | clearance
92 | COc1cc(Nc2ncc(C(C)(C)O)cc2-c2nc(C)nc(N)n2)cnc1OC | 21.7 mL/min/kg
93 | COc1ncc(Nc2ncc(C(C)(C)O)cc2-c2nc(C)nc(N)n2)cc1F | 18.3 mL/min/kg
94 | COc1ncc(Nc2ncc([C@@H](C)N3CCN(S(C)(=O)=O)CC3)cc2-c2nc(C)nc(N)n2)cc1F | 7.5 mL/min/kg
